Patent US7772245B2, “Inhibitors of histone deacetylase” (Miikana Therapeutics, Inc., priority 2005, dated 2010)

Columns and labels:
HDAC = assay: In vitro fluorescent histone deacetylase assay (Biomol HDAC fluorescent activity kit, HeLa cell nuclear extract); format: biochemical; details: 100 μM compound; HeLa cell nuclear extract as source of HDAC activity; 50 μM substrate, 10 min at room temperature
Description: Histone deacetylase (HDAC) activity assays were performed using the HDAC fluorescent activity assay/drug discovery kit (Biomol Research Laboratories, Plymouth Meeting, Pa.) essentially according to the manufacturer's instructions. The included HeLa cell nuclear extract, which contains a mosaic of HDAC enzymes and other nuclear factors, was used as the source of HDAC activity. The final substrate concentration in the assay mixture was 50 μM. The reaction was allowed to proceed for 10 min at room temperature before stopping the reaction. Test compounds were prepared as 20 mM stock solutions in DMSO (Molecular Biology grade, Sigma-Aldrich Co., St. Louis, Mo.) and stored at −70° C. Serial dilutions of test compounds were prepared in assay buffer immediately prior to testing. DMSO was determined in a separate trial to have no significant effect on the activity of this assay at concentrations up to 5%; the final DMSO concentration in the wells was no more than 2% and therefore DMSO effects were safely neglected. Assays were performed in white polystyrene 96-well half-area assay plates (Corning, Corning, N.Y.) and measured on a Wallace 1420 fluorescent plate reader (Wallac Oy, Turku, Finland) with an excitation wavelength of 355 nm, an emission wavelength of 460 nm, and a 1 sec signal averaging time.

HCT116 cells = assay: Whole cell cytotoxicity assay: Sulforhodamine B; format: cell-based; details: Homo sapiens, HCT-116; 100 μM compound; 48 hours incubation with drug; Sulforhodamine B staining; read-out: % Inhibition of HCT116 cell growth @ 100 μM
Description: [The source words this procedure for another cell line and reports this cell line under the same test.] The following procedure can be found on the Developmental Therapeutics Program NCl/NIH web site at http://dtp.nci.nih.gov/brancehes/btb/ivclsp.html. • 1. Human tumor cell lines of HT29, A549 and MCF7 are grown in DMEM containing 10% fetal bovine serum and 2 mM L-glutamine. Cells are plated in a 96 well plate at a density of 5000 cells per well in 100 μL of growth medium and incubated at 37° C., 5% CO2, for 24 hours prior to the addition of experimental compounds. • 2. Experimental drugs are solubilized in DMSO for a final concentration of 20 mM immediately prior to use. Drugs are further diluted in growth media for a total of nine drug concentrations and a growth control. At the 24 hour time point, one plate of cells is fixed in situ with TCA as a measurement of the cell population at time zero, or the time of drug addition. • 3. The plates are further incubated with drug for an additional 48 hours. • 4. The cells are fixed in situ by gently aspirating off the culture media and then adding 50 μL of ice cold 10% TCA per well and incubated at 4° C. for 60 minutes. The plates are washed with tap water five times and allowed to air dry for 5 minute. • 5. 50 μL of a 0.4% (w/v) Sulforhodamine B solution in 1% (v/v) acetic acid is added per well and incubated for 30 minutes at room temperature. • 6. Following staining, plates are washed five times with 1% acetic acid to remove any unbound dye and then allowed to air dry for 5 minutes. • 7. Stain is solubilized with 100 μL of 10 mM Tris pH 10.5 per well and placed on an orbital rotator for 5 minutes. • 8. Absorbance is read at 570 nm.

SMILES	% Inhibition of HDAC @ 100 μM (HDAC)	inhibition at 100 µM (HCT116 cells)
O=C(NO)c1cnc(N2CCc3[nH]c4ccc(-c5ccc[nH]5)cc4c3C2)nc1 [Example 53, N-hydroxy-2-{8-[1H-pyrrol-2-yl]-1,3,4,5-tetrahydro-2H-pyrido[4,3-b]indol-2-yl}pyrimidine-5-carboxamide]	100%	96.4%
Cc1ccc2[nH]c3c(c2c1Cl)CN(c1ncc(C(=O)NO)cn1)CC3 [Example 54, N-hydroxy-2-(9-chloro-8-methyl-1,3,4,5-tetrahydro-2H-pyrido[4,3-b]indol-2-yl)pyrimidine-5-carboxamide]	99.5%	98.9%
O=C(NO)c1cnc(N2CCc3[nH]c4ccc(C(F)(F)F)cc4c3C2)nc1 [Example 55, N-hydroxy-2-(8-trifluoromethyl-1,3,4,5-tetrahydro-2H-pyrido[4,3-b]indol-2-yl)pyrimidine-5-carboxamide]	99.3%	99.1%
Cc1cc2[nH]c3c(c2cc1C)CN(c1ncc(C(=O)NO)cn1)CC3 [Example 56, N-hydroxy-2-(7,8-dimethyl-1,3,4,5-tetrahydro-2H-pyrido[4,3-b]indol-2-yl)pyrimidine-5-carboxamide]	99.8%	99%
COc1ccc2[nH]c3c(c2c1)CN(c1ncc(C(=O)NO)cn1)CC3 [Example 57, N-hydroxy-2-(8-methoxy-1,3,4,5-tetrahydro-2H-pyrido[4,3-b]indol-2-yl)pyrimidine-5-carboxamide]	99.9%	98.2%
O=C(NO)c1cnc(N2CCc3c(n(CCO)c4ccccc34)C2)nc1 [Example 58, N-hydroxy-2-[9-(2-hydroxyethyl)-1,3,4,9-tetrahydro-2H-b-carbolin-2-yl]pyrimidine-5-carboxamide]	97.7%	96.3%
CN1CCCC(n2c3c(c4ccccc42)CCN(c2ncc(C(=O)NO)cn2)C3)C1 (centres unmarked) [Example 59, N-hydroxy-2-[9-(1-methylpiperidin-3-yl)-1,3,4,9-tetrahydro-2H-b-carbolin-2-yl]pyrimidine-5-carboxamide]	97.3%	97.5%
O=C(NO)c1cnc(N2CCc3[nH]c4ccc(-c5cccs5)cc4c3C2)nc1 [Example 60, N-hydroxy-2-{8-[thien-2-yl]-1,3,4,5-tetrahydro-2H-pyrido[4,3-b]indol-2-yl}pyrimidine-5-carboxamide]	100%	99%
Cc1cccc2c3c([nH]c12)CN(c1ncc(C(=O)NO)cn1)CC3 [Example 61, N-hydroxy-2-(8-methyl-1,3,4,9-tetrahydro-2H-b-carbolin-2-yl)pyrimidine-5-carboxamide]	99.9%	98.2%
O=C(NO)c1cnc(N2CCc3c([nH]c4cc(F)ccc34)C2)nc1 [Example 62, N-hydroxy-2-(7-fluoro-1,3,4,9-tetrahydro-2H-b-carbolin-2-yl)pyrimidine-5-carboxamide]	99.9%	96.2%
O=C(NO)c1cnc(N2CCc3c([nH]c4ccc(F)cc34)C2)nc1 [Example 63, N-hydroxy-2-(6-fluoro-1,3,4,9-tetrahydro-2H-b-carbolin-2-yl)pyrimidine-5-carboxamide]	99.8%	98.9%
O=C(NO)c1cnc(N2CCc3c([nH]c4ccc(OCc5ccccc5)cc34)C2)nc1 [Example 64, N-hydroxy-2-(6-benzyloxy-1,3,4,9-tetrahydro-2H-b-carbolin-2-yl)pyrimidine-5-carboxamide]	99.9%	98.7%
Cc1ccc2c3c([nH]c2c1)CN(c1ncc(C(=O)NO)cn1)CC3 [Example 65, N-hydroxy-2-(7-methyl-1,3,4,9-tetrahydro-2H-b-carbolin-2-yl)pyrimidine-5-carboxamide]	99.8%	98.4%
Cc1ccc2c(c1)C1CCN(c3ncc(C(=O)NO)cn3)CC1N2 (centres unmarked) [Example 67, N-hydroxy-2-(6-methyl-1,3,4,4a,9,9a-hexahydro-2H-b-carbolin-2-yl)pyrimidine-5-carboxamide]	99.9%	98.2%
Cc1ccc2[nH]c3c(c2c1)CCN(c1ncc(C(=O)NO)cn1)C3 [Example 68, N-hydroxy-2-(6-methyl-1,3,4,9-tetrahydro-2H-b-carbolin-2-yl)pyrimidine-5-carboxamide]	99.9%	98.9%
O=C(NO)c1cnc(N2CCc3c([nH]c4ccc(-c5cccc(CN6CCOCC6)c5)cc34)C2)nc1 [Example 70, N-hydroxy-2-{6-[3-(morpholin-4-ylmethyl)phenyl]-1,3,4,9-tetrahydro-2H-b-carbolin-2-yl}pyrimidine-5-carboxamide]	99.9%	97.9%
CN1CCN(Cc2cccc(-c3ccc4[nH]c5c(c4c3)CCN(c3ncc(C(=O)NO)cn3)C5)c2)CC1 [Example 71, N-hydroxy-2-{6-[3-((4-methylpiperazin-1-yl)methyl)phenyl]-1,3,4,9-tetrahydro-2H-b-carbolin-2-yl}pyrimidine-5-carboxamide]	99.9%	98.6%
CN1CCN(Cc2ccc(-c3ccc4[nH]c5c(c4c3)CCN(c3ncc(C(=O)NO)cn3)C5)cc2)CC1 [Example 72, N-hydroxy-2-{6-[4-((4-methylpiperazin-1-yl)methyl)phenyl]-1,3,4,9-tetrahydro-2H-b-carbolin-2-yl}pyrimidine-5-carboxamide]	99.8%	95.6%
CN1CCN(Cc2ccccc2-c2ccc3[nH]c4c(c3c2)CCN(c2ncc(C(=O)NO)cn2)C4)CC1 [Example 73, N-hydroxy-2-{6-[2-((4-methylpiperazin-1-yl)methyl)phenyl]-1,3,4,9-tetrahydro-2H-b-carbolin-2-yl}pyrimidine-5-carboxamide]	99.6%	99.4%
CC(=O)n1c2c(c3cc(C)ccc31)CN(c1ncc(C(=O)NO)cn1)CC2 [Example 74, N-hydroxy-2-{5-acetyl-8-methyl-1,3,4,5-tetrahydro-2H-pyrido[4,3-b]indol-2-yl}pyrimidine-5-carboxamide]	99.1%	93.6%
Cc1ccc2c(c1)C1CN(c3ncc(C(=O)NO)cn3)CCC1N2 (centres unmarked) [Example 75, N-hydroxy-2-(8-methyl-1,3,4,4a,5,9b-hexahydro-2H-pyrido[4,3-b]indol-2-yl)pyrimidine-5-carboxamide]	99.9%	98.4%
Nc1ccc2[nH]c3c(c2c1)CN(c1ncc(C(=O)NO)cn1)CC3 [Example 76, N-hydroxy-2-(8-amino-1,3,4,5-tetrahydro-2H-pyrido[4,3-b]indol-2-yl)pyrimidine-5-carboxamide]	100%	98.9%
CS(=O)(=O)Nc1ccc2[nH]c3c(c2c1)CN(c1ncc(C(=O)NO)cn1)CC3 [Example 78, N-hydroxy-2-(8-(N-methylsulfonamido)-1,3,4,5-tetrahydro-2H-pyrido[4,3-b]indol-2-yl)pyrimidine-5-carboxamide]	99.9%	85.1%
C[S+]([O-])c1cccc(-c2ccc3[nH]c4c(c3c2)CN(c2ncc(C(=O)NO)cn2)CC4)c1 (centres unmarked) [Example 79, N-hydroxy-2-{8-[3-(methylsulfinyl)phenyl]-1,3,4,5-tetrahydro-2H-pyrido[4,3-b]indol-2-yl}pyrimidine-5-carboxamide]	100%	95.7%
CC(=O)NCc1cccc(-c2ccc3[nH]c4c(c3c2)CN(c2ncc(C(=O)NO)cn2)CC4)c1 [Example 82, N-hydroxy-2-{8-[3-(N-acetamidomethyl)phenyl]-1,3,4,5-tetrahydro-2H-pyrido[4,3-b]indol-2-yl}pyrimidine-5-carboxamide]	99.9%	97%
